Reference: the NIST ThermoML archive (doi:10.1016/j.jct.2004.07.024)
Numbers after ± are expanded uncertainties.

Assay: xn = mol fraction of the nth substance listed
Conditions: 101.33 kPa, Liquid

CCc1ccccc1 [ethylbenzene] + C[S+](C)[O-]
Conditions | mass density [kg/m3]
293.15 K, x1 = 0.0626 | 1076.31 ± 0.31
293.15 K, x1 = 0.1596 | 1043.57 ± 0.29
293.15 K, x1 = 0.2203 | 1025.03 ± 0.29
293.15 K, x1 = 0.2983 | 1003.06 ± 0.29
293.15 K, x1 = 0.3698 | 984.55 ± 0.31
293.15 K, x1 = 0.4623 | 962.58 ± 0.35
293.15 K, x1 = 0.5186 | 950.18 ± 0.38
293.15 K, x1 = 0.5712 | 939.18 ± 0.4
293.15 K, x1 = 0.6285 | 927.89 ± 0.42
293.15 K, x1 = 0.6802 | 918.18 ± 0.44
293.15 K, x1 = 0.7525 | 905.36 ± 0.47
293.15 K, x1 = 0.8102 | 895.69 ± 0.49
293.15 K, x1 = 0.8723 | 885.81 ± 0.51
293.15 K, x1 = 0.9456 | 874.79 ± 0.53
303.15 K, x1 = 0.0669 | 1065.53 ± 0.29
303.15 K, x1 = 0.1456 | 1038.79 ± 0.28
303.15 K, x1 = 0.2569 | 1005.2 ± 0.28
303.15 K, x1 = 0.3203 | 988 ± 0.3
303.15 K, x1 = 0.3956 | 969 ± 0.33
303.15 K, x1 = 0.4569 | 954.63 ± 0.36
303.15 K, x1 = 0.5132 | 942.23 ± 0.38
303.15 K, x1 = 0.5856 | 927.28 ± 0.41
303.15 K, x1 = 0.6277 | 919.04 ± 0.42
303.15 K, x1 = 0.7065 | 904.51 ± 0.45
303.15 K, x1 = 0.7856 | 890.93 ± 0.48
303.15 K, x1 = 0.8359 | 882.8 ± 0.5
303.15 K, x1 = 0.8856 | 875.1 ± 0.52
303.15 K, x1 = 0.9503 | 865.51 ± 0.54
313.15 K, x1 = 0.0624 | 1056.77 ± 0.28
313.15 K, x1 = 0.1459 | 1028.39 ± 0.27
313.15 K, x1 = 0.2201 | 1005.62 ± 0.27
313.15 K, x1 = 0.2692 | 991.65 ± 0.28
313.15 K, x1 = 0.3314 | 975.03 ± 0.31
313.15 K, x1 = 0.3963 | 958.87 ± 0.34
313.15 K, x1 = 0.4456 | 947.35 ± 0.36
313.15 K, x1 = 0.4965 | 936.07 ± 0.38
313.15 K, x1 = 0.5216 | 930.71 ± 0.39
313.15 K, x1 = 0.5986 | 915.08 ± 0.42
313.15 K, x1 = 0.6853 | 898.86 ± 0.45
313.15 K, x1 = 0.7526 | 887.13 ± 0.48
313.15 K, x1 = 0.8418 | 872.68 ± 0.51
313.15 K, x1 = 0.9258 | 860.05 ± 0.54
323.15 K, x1 = 0.0625 | 1046.39 ± 0.27
323.15 K, x1 = 0.1786 | 1007.95 ± 0.26
323.15 K, x1 = 0.2469 | 987.84 ± 0.28
323.15 K, x1 = 0.3095 | 970.78 ± 0.3
323.15 K, x1 = 0.3698 | 955.5 ± 0.33
323.15 K, x1 = 0.4152 | 944.61 ± 0.35
323.15 K, x1 = 0.4723 | 931.67 ± 0.38
323.15 K, x1 = 0.5362 | 918.08 ± 0.4
323.15 K, x1 = 0.6048 | 904.45 ± 0.43
323.15 K, x1 = 0.6604 | 894.04 ± 0.45
323.15 K, x1 = 0.7301 | 881.76 ± 0.48
323.15 K, x1 = 0.7992 | 870.36 ± 0.5
323.15 K, x1 = 0.8683 | 859.65 ± 0.52
323.15 K, x1 = 0.9226 | 851.65 ± 0.54
333.15 K, x1 = 0.066 | 1034.83 ± 0.25
333.15 K, x1 = 0.1159 | 1017.74 ± 0.25
333.15 K, x1 = 0.1896 | 994.42 ± 0.25
333.15 K, x1 = 0.2156 | 986.74 ± 0.27
333.15 K, x1 = 0.2765 | 969.61 ± 0.3
333.15 K, x1 = 0.3286 | 955.9 ± 0.32
333.15 K, x1 = 0.3964 | 939.26 ± 0.35
333.15 K, x1 = 0.4598 | 924.75 ± 0.38
333.15 K, x1 = 0.5349 | 908.81 ± 0.41
333.15 K, x1 = 0.6126 | 893.53 ± 0.44
333.15 K, x1 = 0.6861 | 880.14 ± 0.47
333.15 K, x1 = 0.7698 | 865.99 ± 0.5
333.15 K, x1 = 0.8459 | 854.04 ± 0.52
333.15 K, x1 = 0.9025 | 845.66 ± 0.54
343.15 K, x1 = 0.0599 | 1026.68 ± 0.24
343.15 K, x1 = 0.1569 | 994.32 ± 0.24
343.15 K, x1 = 0.2363 | 970.71 ± 0.28
343.15 K, x1 = 0.3001 | 953.33 ± 0.31
343.15 K, x1 = 0.3895 | 931.07 ± 0.36
343.15 K, x1 = 0.4519 | 916.81 ± 0.38
343.15 K, x1 = 0.5163 | 903.06 ± 0.41
343.15 K, x1 = 0.5698 | 892.31 ± 0.43
343.15 K, x1 = 0.6389 | 879.27 ± 0.46
343.15 K, x1 = 0.6895 | 870.27 ± 0.47
343.15 K, x1 = 0.7558 | 859.13 ± 0.5
343.15 K, x1 = 0.8106 | 850.44 ± 0.52
343.15 K, x1 = 0.8895 | 838.64 ± 0.54
343.15 K, x1 = 0.9502 | 830.09 ± 0.56
353.15 K, x1 = 0.059 | 1016.69 ± 0.23
353.15 K, x1 = 0.1555 | 984.6 ± 0.25
353.15 K, x1 = 0.2236 | 964.29 ± 0.29
353.15 K, x1 = 0.2856 | 947.23 ± 0.32
353.15 K, x1 = 0.3384 | 933.66 ± 0.34
353.15 K, x1 = 0.4089 | 916.78 ± 0.37
353.15 K, x1 = 0.4625 | 904.82 ± 0.39
353.15 K, x1 = 0.5185 | 893.03 ± 0.42
353.15 K, x1 = 0.5665 | 883.47 ± 0.44
353.15 K, x1 = 0.6255 | 872.34 ± 0.46
353.15 K, x1 = 0.6706 | 864.28 ± 0.48
353.15 K, x1 = 0.7556 | 850 ± 0.51
353.15 K, x1 = 0.8326 | 838.04 ± 0.53
353.15 K, x1 = 0.9129 | 826.41 ± 0.56
